Test results as given in patent publication US9765035B2 (priority 2013, dated 2017).
Read-outs that look alike come from different tables or passages of the source.

How the values were obtained:
[1] = system: RKO cells, mono-methyl arginine; test: RKO Methylation Assay (In Cell Western for mono-methyl arginine); type: cell-based; conditions: Homo sapiens
Source text: RKO adherent cells were purchased from ATCC (American Type Culture Collection), Manassas, Va., USA. DMEM/Glutamax medium, penicillin-streptomycin, heat inactivated fetal bovine serum, 0.05% trypsin and D-PBS were purchased from Life Technologies, Grand Island, N.Y., USA. Odyssey blocking buffer, 800CW goat anti-rabbit IgG (H+L) antibody, and Licor Odyssey infrared scanner were purchased from Licor Biosciences, Lincoln, Nebr., USA. Mono-methyl arginine antibody was purchased from Cell Signaling Technology, Danvers, Mass., USA. Methanol was purchased from VWR, Franklin, Mass., USA. 10% Tween 20 was purchased from KPL, Inc., Gaithersburg, Md., USA. DRAQ5 was purchased from Biostatus Limited, Leicestershire, UK.
RKO adherent cells were maintained in growth medium (DMEM/Glutamax medium supplemented with 10% v/v heat inactivated fetal bovine serum and 100 units/mL penicillin-streptomycin) and cultured at 37° C. under 5% CO2.
Cell Treatment, in Cell Western (ICW) for Detection of Mono-Methyl Arginine and DNA Content. […] Compound (100 nL) from a 96-well source plate was added directly to 384 well cell plate. Plates were incubated at 37° C., 5% CO2 for 72 hours. After three days of incubation, plates were brought to room temperature outside of the incubator for ten minutes and blotted on paper towels to remove cell media. 50 μL of ice cold 100% methanol was added directly to each well and incubated for 30 min at room temperature. After 30 min, plates were transferred to a Biotek EL406 plate washer and washed 2 times with 100 μL per well of wash buffer (1×PBS). Next 60 μL per well of Odyssey blocking buffer (Odyssey Buffer with 0.1% Tween 20 (v/v)) were added to each plate and incubated 1 hour at room temperature. Blocking buffer was removed and 20 μL per well of primary antibody was added (mono-methyl arginine diluted 1:200 in Odyssey buffer with 0.1% Tween 20 (v/v)) and plates were incubated overnight (16 hours) at 4° C. Plates were washed 5 times with 100 μL per well of wash buffer. […] The plates were washed 5 times with 100 μL per well wash buffer then 2 times with 100 μL per well of water. Plates were allowed to dry at room temperature then imaged on the Licor Odyssey machine which measures integrated intensity at 700 nm and 800 nm wavelengths. Both 700 and 800 channels were scanned.
Calculations: First, the ratio for each well was determined by:
Each plate included fourteen control wells of DMSO only treatment (minimum activation) as well as fourteen control wells for maximum activation treated with 20 μM of a reference compound. The average of the ratio values for each control type was calculated and used to determine the percent activation for each test well in the plate. Reference compound was serially diluted three-fold in DMSO for a total of nine test concentrations, beginning at 20 μM. Percent activation was determined and EC30 curves were generated using triplicate wells per concentration of compound.

[2] = target: human PRMT6 (Homo sapiens, UniProt Q96LA8); test: biochemical
Sequence of human PRMT6 (Q96LA8 with tags, fused parts or gaps): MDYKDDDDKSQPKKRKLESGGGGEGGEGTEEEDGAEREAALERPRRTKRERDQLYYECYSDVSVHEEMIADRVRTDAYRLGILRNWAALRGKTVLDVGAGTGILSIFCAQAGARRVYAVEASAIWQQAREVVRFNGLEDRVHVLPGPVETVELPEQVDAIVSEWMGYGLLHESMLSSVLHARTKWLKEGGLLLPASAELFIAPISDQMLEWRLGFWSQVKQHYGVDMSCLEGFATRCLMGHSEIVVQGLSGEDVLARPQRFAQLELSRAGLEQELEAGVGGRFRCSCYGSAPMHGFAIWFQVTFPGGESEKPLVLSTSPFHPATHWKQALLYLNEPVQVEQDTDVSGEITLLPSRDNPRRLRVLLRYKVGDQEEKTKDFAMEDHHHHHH

[3] = RKO, 72 h, read-out: RGG ICW EC30
[4] = biochemical evaluation, peptide substrate, read-out: PRMT6 IC50
[5] = single experiment or average of multiple experiments, read-out: PRMT6 biochemical evaluation (numerical)
[6] = In Cell Western EC30, RKO cells, 72 hours, single experiment or average of multiple experiments, read-out: RGG ICW
[7] = In Cell Western, RKO cells, 72 hours, read-out: RGG ICW EC30

Row | SMILES | EC30 ([1]; RKO, 72 h, read-out: RGG ICW) | EC30 [1, 3] | IC50 [2, 4] | IC50 [2, 5] | EC30 [1, 6] | EC30 [1, 7]
1 | CNCCN(C)Cc1n[nH]c2ccc(OC3CCOCC3)cc12 [Compound 29, N^1,N^2-dimethyl-N^1-((5-((tetrahydro-2H-pyran-4-yl)oxy)-1H-indazol-3-yl)methyl)ethane-1,2-diamine] | 5.04 µM | 3.01 to 12 µM | 0.101 to 1 µM | 0.178 µM | – | –
2 | CNCCN(C)Cc1n[nH]c2ccc(Oc3ccccc3Cl)cc12 [Compound 30] | 7.2 µM | 3.01 to 12 µM | 0.101 to 1 µM | 0.131 µM | – | –
3 | CNCCN(C)Cc1n[nH]c2cccc(OCCC(C)C)c12 [Compound 31] | – | – | 1.01 to 3 µM | 0.135 µM | 8.24 µM | 3.01 to 12 µM
4 | CNCCN(C)Cc1nn(C)c2ccc(OCc3ccc(C#N)cc3)cc12 [Compound 32] | 8.9 µM | 3.01 to 12 µM | < 0.1 µM | 0.156 µM | – | –
5 | CNCCN(C)Cc1n[nH]c2ccc(OCc3ccn(CC(C)C)n3)cc12 [Compound 33] | – | – | < 0.1 µM | 1.11 µM | 9.06 µM | 3.01 to 12 µM
6 | CNCCN(C)Cc1c2cc(OCc3ccc(C#N)cc3)ccc2nn1C(C)C [Compound 34] | > 20 µM | > 12 µM | 3.01 to 10 µM | 0.0149 µM | – | –
7 | CNCCN(C)Cc1n[nH]c2ccc(OC)cc12 [Compound 35] | – | – | 3.01 to 10 µM | 0.0357 µM | > 20 µM | > 12 µM
8 | CNCCN(C)Cc1n[nH]c2ccc(O)cc12 [Compound 36, 3-((methyl(2-(methylamino)ethyl)amino)methyl)-1H-indazol-5-ol] | – | – | 1.01 to 3 µM | 6.67 µM | > 20 µM | > 12 µM
9 | CNCCN(C)Cc1n[nH]c2ccc(Oc3ccc(C#N)cc3)cc12 [Compound 37] | – | – | 0.101 to 1 µM | 4.84 µM | > 20 µM | > 12 µM
10 | CNCCN(C)Cc1nn(C2CCN(C(C)=O)CC2)c2ccc(OCc3ccc(C#N)cc3)cc12 [Compound 38] | – | – | 0.101 to 1 µM | 1.87 µM | > 20 µM | > 12 µM
11 | CNCCN(C)Cc1n[nH]c2ccc(Oc3ccc(C(F)(F)F)cc3)cc12 [Compound 39] | > 20 µM | > 12 µM | 0.101 to 1 µM | 0.694 µM | – | –
